From paper PMC6582486, “Stapled EGFR peptide reduces inflammatory breast cancer and inhibits additional HER-driven models of cancer” (Journal of Translational Medicine, 2019)
Read-outs that look alike come from different tables or passages of the source. Where a SMILES comes first, the peptide text is derived from it. Bridges are numbered along the chain shown (N, C = ends). [ ]: non-standard residue; d: D form. R8 = C=CCCCCCC[C@@](C)(N)C(=O)O; S5 = C=CCCC[C@](C)(N)C(=O)O

How the values were obtained:
[1] = test system: MDA-MB-468 breast cancer cells; type: cell-based, human; details: for increase in efficacy over unstapled EJ1: MDA-MB-468 cell viability, ratio of IC50
From the text: Fig. 1 Hydrocarbon stapling leads to increased EJ1 activity in comparison to HER-directed monoclonal therapies. a EJ1 sequence with PTD4 domain (underlined) corresponding to EGFR juxtamembrane domain sequence 643–663. Stabilized alpha helix (SAH) variations 1–5 beneath, with asterisks (*) indicating sites of staple. Control peptide (CP) with altered residues indicated by double underline. Stapled control (5) asterisks (*) indicate sites of staple. b Cartoon representation of EJ1 structure, with staple variation 5 highlighted. Positively charged residues indicated in blue, negatively charged residues in red. c Cartoon representation of CP structure, with staple variation highlighted. d Cell viability assay performed in MDA-MB-468 cells after 24 h comparing unstapled EJ1 versus staple variations SAH1, SAH4, and SAH5, with increasing concentrations. e Visualization of MDA-MB-468 cells untreated, treated with 10 µM EJ1, and 10 µM SAH5-EJ1 after 60 min. Scale bars represent 50 µm. f–h Cell viability assay performed in MDA-MB-468, MCF10A, or CHO cells over 3 days comparing treatment with Sapitinib (blue lines), SAH5-EJ1 (red lines), and SAH5-CP (grey lines). […] Data shown in d, f, g–i represent mean ± percent difference of assays performed in triplicate 1000–3000 cells were plated in 96-well plates (Falcon; Corning, NY) and allowed to adhere for 24–48 h prior to therapeutic introduction. Compounds were added and incubated on cells for 3 days in serum-containing media, followed by 2 h treatment with MTT (Sigma M5655) with the resulting formazan solubilized in DMSO. Absorbance was read at 540 nm by plate reader (uQuant, Bio-Tek Instruments). P-values were calculated from a one-way ANOVA.

[2] = 28-day toxicity study: injection site reactogenicity; type: in vivo, CD-1 mice; details: for Injection site reactogenicity: Animals with Signs: 28-day study
Experimental: Toxicology was performed by IITRI. The study was conducted in compliance with the US Food and Drug Administration (FDA) good laboratory practice (GLP) Regulations (Code of Federal Regulations Title 21 Part 58) to evaluate the toxicokinetics, local tolerability, immunogenicity, and potential toxicity of SAH5-EJ1 following three times per week intravenous (IV) dosing for 28 days in mice. Male and female CD-1 IGS [Crl:CD1(ICR)] mice (135 per sex) were received from Wilmington, MA-based Charles River Laboratories, Inc.’s Kingston facility (Stone Ridge, NY).
Response measured at 6 and 24 hours post-injection.

[3] = test system: MCF10A breast cells; experiment: Cell viability assay (MTT), MCF10A; type: cell-based, human
From the text: Fig. 1 Hydrocarbon stapling leads to increased EJ1 activity in comparison to HER-directed monoclonal therapies. a EJ1 sequence with PTD4 domain (underlined) corresponding to EGFR juxtamembrane domain sequence 643–663. Stabilized alpha helix (SAH) variations 1–5 beneath, with asterisks (*) indicating sites of staple. Control peptide (CP) with altered residues indicated by double underline. Stapled control (5) asterisks (*) indicate sites of staple. b Cartoon representation of EJ1 structure, with staple variation 5 highlighted. Positively charged residues indicated in blue, negatively charged residues in red. c Cartoon representation of CP structure, with staple variation highlighted. d Cell viability assay performed in MDA-MB-468 cells after 24 h comparing unstapled EJ1 versus staple variations SAH1, SAH4, and SAH5, with increasing concentrations. e Visualization of MDA-MB-468 cells untreated, treated with 10 µM EJ1, and 10 µM SAH5-EJ1 after 60 min. Scale bars represent 50 µm. f–h Cell viability assay performed in MDA-MB-468, MCF10A, or CHO cells over 3 days comparing treatment with Sapitinib (blue lines), SAH5-EJ1 (red lines), and SAH5-CP (grey lines). […] Absorbance was read at 540 nm by plate reader (uQuant, Bio-Tek Instruments). P-values were calculated from a one-way ANOVA.

CC[C@H](C)[C@H](NC(=O)[C@H](Cc1c[nH]cn1)NC(=O)[C@H](CCCNC(=N)N)NC(=O)[C@H](CCCNC(=N)N)NC(=O)[C@H](CCCNC(=N)N)NC(=O)[C@H](CCSC)NC(=O)[C@H](Cc1ccccc1)NC(=O)[C@H](C)NC(=O)[C@H](CCCNC(=N)N)NC(=O)[C@H](C)NC(=O)[C@H](CCC(N)=O)NC(=O)[C@H](CCCNC(=N)N)NC(=O)[C@H](C)NC(=O)[C@H](C)NC(=O)[C@H](C)NC(=O)[C@H](CCCNC(=N)N)NC(=O)[C@H](C)NC(=O)[C@@H](N)Cc1ccc(O)cc1)C(=O)N[C@H](C(=O)N[C@@H](CCCNC(=N)N)C(=O)N[C@@H](CCCCN)C(=O)N[C@@H](CCCNC(=N)N)C(=O)N[C@]1(C)CCCCCCC=CCCC[C@@](C)(C(=O)N[C@@H](CCCNC(=N)N)C(=O)N[C@@H](CCC(=O)O)C(N)=O)NC(=O)[C@H](CCC(N)=O)NC(=O)[C@H](CC(C)C)NC(=O)[C@H](CC(C)C)NC(=O)[C@H](CCCNC(=N)N)NC(=O)[C@H](CCCNC(=N)N)NC(=O)[C@H](CC(C)C)NC1=O)C(C)C [SAH5-EJ1] (H-YARAAARQARAFMRRRHIVRKR[R8]LRRLLQ[S5]RE-NH2; staple 23-30)
5: Edema: 1 - Minimal, slight swelling (animals) ([2]; female, 5 mg/kg, 10 examined) | Erythema and Eschar: 3 - Moderate, bright red, distinct (animals) ([2]; female, 10 mg/kg, 10 examined) | Erythema and Eschar: 3 - Moderate, bright red, distinct (animals) ([2]; female, 15 mg/kg, 15 examined)
7.2 fold: increase in efficacy over unstapled EJ1 ([1]; listed as SAH-EJ1)
0: Edema: 2 - Mild, defined swelling (animals) ([2]; female, 5 mg/kg, 10 examined) | Edema: 3 - Moderate, defined swelling, raised border (animals) ([2]; female, 5 mg/kg, 10 examined) | Erythema and Eschar: 3 - Moderate, bright red, distinct (animals) ([2]; female, 5 mg/kg, 10 examined) | Edema: 3 - Moderate, defined swelling, raised border (animals) ([2]; female, 10 mg/kg, 10 examined) | Edema: 2 - Mild, defined swelling (animals) ([2]; male, 5 mg/kg, 10 examined) | Edema: 3 - Moderate, defined swelling, raised border (animals) ([2]; male, 5 mg/kg, 10 examined) | Edema: 4 - Severe, pronounced swelling, raised border (animals) ([2]; male, 5 mg/kg, 10 examined) | Erythema and Eschar: 3 - Moderate, bright red, distinct (animals) ([2]; male, 5 mg/kg, 10 examined)
12: Edema: 2 - Mild, defined swelling (animals) ([2]; female, 15 mg/kg, 15 examined)
6: Erythema and Eschar: 4 - Severe, dark red, pronounced (animals) ([2]; female, 15 mg/kg, 15 examined) | Erythema and Eschar: 1 - Minimal (animals) ([2]; male, 10 mg/kg, 10 examined) | Erythema and Eschar: 4 - Severe, dark red, pronounced (animals) ([2]; male, 15 mg/kg, 15 examined)
more than 7 fold: increase in efficacy over unstapled EJ1 [1]
complete cell death: cell death ([1]; MDA-MB-468, 4 µM, after 1 day)
7: Erythema and Eschar: 2 - Mild, bright pink/pale, distinct (animals) ([2]; female, 10 mg/kg, 10 examined) | Edema: 1 - Minimal, slight swelling (animals) ([2]; male, 5 mg/kg, 10 examined) | Edema: 2 - Mild, defined swelling (animals) ([2]; male, 10 mg/kg, 10 examined) | Edema: 3 - Moderate, defined swelling, raised border (animals) ([2]; male, 15 mg/kg, 15 examined)
3: Edema: 2 - Mild, defined swelling (animals) ([2]; female, 10 mg/kg, 10 examined) | Erythema and Eschar: 1 - Minimal (animals) ([2]; male, 5 mg/kg, 10 examined)
11: Erythema and Eschar: 1 - Minimal (animals) ([2]; male, 15 mg/kg, 15 examined)
2: Erythema and Eschar: 4 - Severe, dark red, pronounced (animals) ([2]; female, 10 mg/kg, 10 examined) | Erythema and Eschar: 2 - Mild, bright pink/pale, distinct (animals) ([2]; male, 5 mg/kg, 10 examined) | Erythema and Eschar: 4 - Severe, dark red, pronounced (animals) ([2]; male, 10 mg/kg, 10 examined) | Edema: 4 - Severe, pronounced swelling, raised border (animals) ([2]; male, 15 mg/kg, 15 examined)
10 µM: concentration at which complete cell death was observed [3]
8: Edema: 1 - Minimal, slight swelling (animals) ([2]; male, 10 mg/kg, 10 examined) | Erythema and Eschar: 2 - Mild, bright pink/pale, distinct (animals) ([2]; male, 10 mg/kg, 10 examined)
2500 nM: IC50 ([1]; 24 h)
14: Edema: 1 - Minimal, slight swelling (animals) ([2]; female, 15 mg/kg, 15 examined) | Erythema and Eschar: 2 - Mild, bright pink/pale, distinct (animals) ([2]; female, 15 mg/kg, 15 examined) | Edema: 1 - Minimal, slight swelling (animals) ([2]; male, 15 mg/kg, 15 examined) | Edema: 2 - Mild, defined swelling (animals) ([2]; male, 15 mg/kg, 15 examined)
4: Erythema and Eschar: 1 - Minimal (animals) ([2]; female, 5 mg/kg, 10 examined) | Erythema and Eschar: 2 - Mild, bright pink/pale, distinct (animals) ([2]; female, 5 mg/kg, 10 examined) | Erythema and Eschar: 3 - Moderate, bright red, distinct (animals) ([2]; male, 10 mg/kg, 10 examined)
1: Erythema and Eschar: 4 - Severe, dark red, pronounced (animals) ([2]; female, 5 mg/kg, 10 examined) | Edema: 3 - Moderate, defined swelling, raised border (animals) ([2]; female, 15 mg/kg, 15 examined) | Erythema and Eschar: 4 - Severe, dark red, pronounced (animals) ([2]; male, 5 mg/kg, 10 examined) | Edema: 3 - Moderate, defined swelling, raised border (animals) ([2]; male, 10 mg/kg, 10 examined) | Edema: 4 - Severe, pronounced swelling, raised border (animals) ([2]; male, 10 mg/kg, 10 examined)
10: Edema (animals) ([2]; female, 5 mg/kg, 10 examined) | Edema: 0 - Normal, no swelling (animals) ([2]; female, 5 mg/kg, 10 examined) | Erythema and Eschar Formation (animals) ([2]; female, 5 mg/kg, 10 examined) | Erythema and Eschar: 0 - Normal (animals) ([2]; female, 5 mg/kg, 10 examined) | Injection site reactogenicity: Animals with Signs ([2]; female, 5 mg/kg, 10 examined) | Edema (animals) ([2]; female, 10 mg/kg, 10 examined) | Edema: 0 - Normal, no swelling (animals) ([2]; female, 10 mg/kg, 10 examined) | Edema: 1 - Minimal, slight swelling (animals) ([2]; female, 10 mg/kg, 10 examined) | Erythema and Eschar Formation (animals) ([2]; female, 10 mg/kg, 10 examined) | Erythema and Eschar: 0 - Normal (animals) ([2]; female, 10 mg/kg, 10 examined) | Erythema and Eschar: 1 - Minimal (animals) ([2]; female, 10 mg/kg, 10 examined) | Injection site reactogenicity: Animals with Signs ([2]; female, 10 mg/kg, 10 examined) | Erythema and Eschar: 1 - Minimal (animals) ([2]; female, 15 mg/kg, 15 examined) | Edema (animals) ([2]; male, 5 mg/kg, 10 examined) | Edema: 0 - Normal, no swelling (animals) ([2]; male, 5 mg/kg, 10 examined) | Erythema and Eschar Formation (animals) ([2]; male, 5 mg/kg, 10 examined) | Erythema and Eschar: 0 - Normal (animals) ([2]; male, 5 mg/kg, 10 examined) | Injection site reactogenicity: Animals with Signs ([2]; male, 5 mg/kg, 10 examined) | Edema (animals) ([2]; male, 10 mg/kg, 10 examined) | Edema: 0 - Normal, no swelling (animals) ([2]; male, 10 mg/kg, 10 examined) | Erythema and Eschar Formation (animals) ([2]; male, 10 mg/kg, 10 examined) | Erythema and Eschar: 0 - Normal (animals) ([2]; male, 10 mg/kg, 10 examined) | Injection site reactogenicity: Animals with Signs ([2]; male, 10 mg/kg, 10 examined) | Erythema and Eschar: 3 - Moderate, bright red, distinct (animals) ([2]; male, 15 mg/kg, 15 examined)
15: Edema (animals) ([2]; female, 15 mg/kg, 15 examined) | Edema: 0 - Normal, no swelling (animals) ([2]; female, 15 mg/kg, 15 examined) | Erythema and Eschar Formation (animals) ([2]; female, 15 mg/kg, 15 examined) | Erythema and Eschar: 0 - Normal (animals) ([2]; female, 15 mg/kg, 15 examined) | Injection site reactogenicity: Animals with Signs ([2]; female, 15 mg/kg, 15 examined) | Edema (animals) ([2]; male, 15 mg/kg, 15 examined) | Edema: 0 - Normal, no swelling (animals) ([2]; male, 15 mg/kg, 15 examined) | Erythema and Eschar Formation (animals) ([2]; male, 15 mg/kg, 15 examined) | Erythema and Eschar: 0 - Normal (animals) ([2]; male, 15 mg/kg, 15 examined) | Erythema and Eschar: 2 - Mild, bright pink/pale, distinct (animals) ([2]; male, 15 mg/kg, 15 examined) | Injection site reactogenicity: Animals with Signs ([2]; male, 15 mg/kg, 15 examined)
